Columns and labels:
[1] = test system: H22 liver cancer xenograft; assay: In vivo anti-HCC assay, H22 liver cancer xenograft mouse model; set-up: species or system mice; conditions: intravenous; for tumour inhibitory rate (TIR, w/w): once a day for 21 days, H22 mice
Method: Five-week-old male Institute of Cancer Research (ICR) mice were purchased from Shanghai SLAC Laboratory Animals Co. Ltd. Briefly, a total of 1 × 10^6 H22 cells were subcutaneously inoculated into the right flank of ICR mice according to protocols of tumour transplant research, to initiate tumour growth. After incubation for one day, mice were weighed and randomly divided into 5 groups of 8 animals. The groups were administered berberine (30 mg/kg) and 6k (15 or 30 mg/kg) in a vehicle of 10% DMF/2% Tween 80/88% saline, respectively. Vehicle and cyclophosphamide (20 mg/kg) were employed as negative and positive controls, respectively. Treatments were performed by intravenous injection once per day for a total of 21 consecutive days. Body weights and tumour volumes were measured every 2 days. The mice were sacrificed after the treatments, and the tumours were excised and weighed. The tumour volume and inhibition rate (w/w) were calculated as follows: tumour volume = L × W^2/2, where L is the length and W is the width; tumour inhibitory ratio (%) = (1-average tumour weight of treated group/average tumour weight of control group) × 100%. All procedures were performed following institutional approval in accordance with the NIH Guide for the Care and Use of Laboratory Animals.

[2] = LWP coefficient (log D) measurement, shake flask; assay type: physicochemical; conditions: pH 7.4
Method: Berberine, 3c and 6k of 1 mg were dissolved in three centrifugal tubes (5 ml) containing phosphate buffer (pH 7.4)-saturated 1-octanol solution (2 mL), followed by the addition of 1-octanol saturated PBS (2 mL). Each tube was vigorously mixed for 1 min and then shaken for 6 h at a speed of 1000 rpm at 37 °C. The mixtures were then centrifuged. 1 mL of 1-octanol phase and 1 mL of buffer were separately collected. Each phase was diluted to a suitable concentration and analysed by HPLC (Shimadzu DGU-20A3R) on a Shimadzu-GL WondaSil C18-WR column (λ = 254 nm) with an eluent of methanol/water (65/35, v/v, 1.0 ml/min). The log D value for each compound was calculated from the ratio of the peak areas using the following equation: Log D = log (Areaoct × x/Areabuf × y). x, y is the dilution factor.

Hep3B cells = assay: In vitro antiproliferative MTT assay, Hep3B cells; assay type: cell-based, human; conditions: Homo sapiens, 72 h, mean ± SD (n = 3)
Method: (§1) HepG2, Sk-Hep-1, Huh-7, Hep3B and L-02 cells were purchased from Nanjing Key Gen Biotech Co. Ltd. (Nanjing, China). The cytotoxicity of test compounds was determined using an MTT assay. Briefly, the cell lines were incubated at 37 °C in a humidified 5% CO2 incubator for 24 h in 96-microwell plates. After medium removal, 100 μL of culture medium with 0.1% DMSO containing test compounds at different concentrations was added to each well and incubated at 37 °C for another 72 h. The MTT (5 mg/mL in PBS) was added and incubated for another 4 h, the optical density was detected with a microplate reader at 490 nm. The IC50 values were calculated according to the dose-dependent curves. All the experiments were repeated in at least three independent experiments.

[3] = test system: Bax, Bcl-2, cytochrome C and caspase-3; assay: Western blot of apoptosis-related proteins; assay type: cell-based, human; conditions: HepG2, 72 h, concentration-dependent
Method: (§2) HepG2 cells were incubated with different doses of 6k for 72 h. Cells were collected, centrifuged, and washed two times with ice-cold PBS. The pellet was then re-suspended in lysis buffer. After the cells were lysed on ice for 20 min, lysates were centrifuged at 13000 g at 4 °C for 15 min. The protein concentration in the supernatant was determined using the BCA protein assay reagents. Equal amounts of protein (20 μg) were resolved using sodium dodecyl sulfate-polyacrylamide gel electrophoresis (SDS-PAGE) (10–12% acrylamide gels) and transferred to PVDF membrane. Membranes were blocked for 1 h at room temperature. Membranes were then incubated with primary antibodies against p-cdc25c, cdc2, cyclin B1, Bax, Bcl-2, cytochrome C, caspase-3, VDAC1 and β-actin, the membrane being gently rotated overnight at 4 °C. The bound antibodies were detected using horseradish peroxidase (HRP)-conjugated second antibodies and visualised by the enhanced chemiluminescent reagent.

Huh-7 cells = assay: In vitro antiproliferative MTT assay, Huh-7 cells; assay type: cell-based, human; conditions: Homo sapiens, 72 h, mean ± SD (n = 3)
Method: as §1

[4] = test system: p-cdc25c, cdc2 and cyclin B1; assay: Western blot of G2/M-related proteins; assay type: cell-based, human; conditions: HepG2, 72 h, concentration-dependent
Method: as §2

HepG2 cells [5] = assay: Cell cycle analysis by PI staining and flow cytometry; assay type: cell-based, human; conditions: for G2 phase cell percentage: 72 h (control 18.00%); for S phase cell percentage: 72 h (control 22.95%); for G1 phase cell percentage: 72 h (control 59.05%)
Method: HepG2 cells were seeded into 6-well plates and incubated at 37 °C in a humidified 5% CO2 incubator for 24 h, and then treated with or without 6k at indicated concentrations for another 72 h. The collected cells were fixed by adding 70% ethanol at 4 °C for 12 h. Subsequently, the cells were resuspended in PBS containing 100 μL RNase A and 400 μL of PI for 30 min. The DNA content of the cells was measured using a FACS Calibur flow cytometer (BectoneDickinson, San Jose, CA, USA).

HepG2 cells [6] = assay: In vitro antiproliferative MTT assay, HepG2 cells; assay type: cell-based, human; conditions: Homo sapiens, 72 h, mean ± SD (n = 3), read-out: IC50 (antiproliferative activity against HepG2 cells)
Method: as §1

[7] = Aqueous solubility measurement by HPLC; assay type: physicochemical; conditions: 25 °C, pH 7.4, aqueous buffer, thermodynamic from solid
Method: Berberine, 3c and 6k (5 mg) were dissolved in 1 ml PBS (50 mM, pH 7.4) at 25 °C. The suspension was sonicated for 30 min and then centrifuged at 15000 g for 5 min. The supernatant was filtered through a PTFE filter (0.2 μm) slowly. Then 10 μL filtered solution was injected into the HPLC system (Shimadzu DGU-20A3R) on a Shimadzu-GL WondaSil C18-WR column and quantified using the standard curves made by the corresponding known concentrations of berberine, 3c and 6k. The eluent was methanol/water (65/35, v/v) at a flow rate of 1.0 ml/min with the detection wavelength at 254 nm.

Sk-Hep-1 cells = assay: In vitro antiproliferative MTT assay, Sk-Hep-1 cells; assay type: cell-based, human; conditions: Homo sapiens, SK-HEP1, 72 h, mean ± SD (n = 3)
Method: as §1

## CCCCCCCCc1c2[n+](cc3c(OCCCCCCCCN4CCN(C)CC4)c(OC)ccc13)CCc1cc3c(cc1-2)OCO3.[Br-] [Compound 6k, 10-Methoxy-9-((8–(4-methylpiperazin-1-yl)octyl)oxy)-13-octyl-5,6-dihydro-[1,3]dioxolo[4,5-g]isoquinolino[3,2-a]isoquinolin-7-ium bromide]
other
  melting point: 151 to 153 °C
[1]; 15 mg/kg
  tumour inhibitory rate (TIR, w/w): 50.4%
[1]; 30 mg/kg
  tumour inhibitory rate (TIR, w/w): 61.1%
[1]; 15 or 30 mg/kg, 21 days
  mice body weights during treatment: didn’t cause significant loss in mice body weights
[2]
  logD: 3.87
Hep3B cells
  IC50: 1.6 ± 0.11 µM
[3]
  Bax expression: upregulated Bax expression
  Bcl-2 expression: downregulated Bcl-2 expression
  caspase-3: activated caspase-3
  cytochrome C release: promoted cytochrome C release
Huh-7 cells
  IC50: 0.62 ± 0.04 µM
[4]
  cdc2: inhibited cdc2 kinase activation
  cdc25c phosphorylation (p-cdc25c): significantly promoted cdc25c phosphorylation
  cyclin B1: reduced cyclin B1 binding
HepG2 cells [5]; HepG2, 0.25-1.0 μM, 72 h
  Effect on cell cycle progression: cell cycle arrest at G2/M phase
HepG2 cells [5]; HepG2, 6k 0.25 μM
  G2 phase cell percentage: 23.56%
  S phase cell percentage: 16.19%
  G1 phase cell percentage: 60.24%
HepG2 cells [5]; HepG2, 6k 0.50 μM
  G2 phase cell percentage: 29.49%
  S phase cell percentage: 22.68%
  G1 phase cell percentage: 47.82%
HepG2 cells [5]; HepG2, 6k 1.0 μM
  G2 phase cell percentage: 32.16%
  S phase cell percentage: 26.95%
  G1 phase cell percentage: 40.88%
HepG2 cells [5]; HepG2, 6k 1.0 μM, 72 h (control 82.00%)
  total cell percentages of G1 and S phases: 67.83%
HepG2 cells [6]
  IC50: 0.76 ± 0.06 µM
[7]
  solubility at 30 min: 1080 µg/mL
Sk-Hep-1 cells
  IC50: 1.69 ± 0.07 µM

Reference: article PMC9467586, “Development of novel 9-O-substituted-13-octylberberine derivatives as potential anti-hepatocellular carcinoma agents” (Journal of Enzyme Inhibition and Medicinal Chemistry, 2022)
